{"source": "paper PMC9386018", "about": "“A lymphatic-absorbed multi-targeted kinase inhibitor for myelofibrosis therapy” (Nature Communications, 2022)", "tested_on": "MPL^W515L mouse model of myelofibrosis", "assay": "MPL^W515L MF mouse model: survival", "type": "in vivo", "settings": "MPL^W515L mice, oral 400 mg kg^−1 daily", "description": "Generation of the MPL^W515L mutant MF mouse model was similar to previously described methods. Briefly, female donor BALB/c mice were treated with 5-fluorouracil at 150 mg kg^−1 intraperitoneal for 5 d before harvesting bone marrow. Hematopoietic stem and progenitor cells were enriched with CD117 magnetic beads (Miltenyi Biotec), transduced with retrovirus containing MSCV-hMPL W515L-IRES-GFP, then 50,000 transduced HSPCs along with 300,000 total non-stem cells were injected intravenously into lethally irradiated female BALB/c recipients. Development of MF was evaluated by spleen volumes using MRI beginning ~14 d following bone marrow transplantation (BMT) as outlined below, continuing weekly until end of the study. Mice were separated into equal groups based on spleen size ~14–21 d post-BMT, then treated with vehicle (Maisine CC) or LP-182 at 400 mg kg^−1 daily by oral gavage for 14–28 d or until mice were euthanized using guidelines for end stage illness and humane endpoints. Untreated healthy control animals were used for experimental comparisons. […] Soluble protein extracts were isolated by centrifugation at 15,000 x g for 15 min at 4 °C, quantified using Micro BCA protein assay (Thermo Scientific), then mixed with reducing 6X SDS-PAGE loading dye, heated for 8 min at 95 °C, and stored at −20 °C until immuno-blot analysis. […]"}
{"smiles": "O=C(NOCCOCCOCCOCCC(=O)N1CCN(c2cnc3ccc(-c4cnc(Cl)c(NS(=O)(=O)c5ccc(F)cc5)c4)cc3n2)CC1)c1ccc(F)c(F)c1Nc1ccc(I)cc1F", "note": "[LP-182, N-(2-(2-(2-(3-(4-(7-(6-chloro-5-((4-fluorophenyl)sulfonamido)pyridin-3-yl)quinoxalin-2-yl)piperazin-1-yl)-3-oxopropoxy)ethoxy)ethoxy)ethoxy)-3,4-difluoro-2-((2-fluoro-4-iodophenyl)amino)benzamide]", "values": [{"measurement": "overall survival (Kaplan-Meier)", "value": "significantly improved overall survival"}, {"measurement": "survival to planned end of study", "setting": "28 d treatment", "value": "survived 50 d post-transplant"}]}
